Where no end group is shown, it is not given here.
Key:
[1] = Nitrocefin hydrolysis kinetics (absorbance of degraded nitrocefin at 480 nm; initial rates V0, Michaelis-Menten fit); type: biochemical; set-up: Initial nitrocefin-degradation reaction rate, V0: unit not given here; settings: for initial rate of nitrocefin degradation reaction (V0): peptide 170 µM, initial nitrocefin 107 µM, first 15 min (Fig. 3f); for Initial nitrocefin-degradation reaction rate, V0: Hepes pH 7.4, average of the six runs
Procedure: Nitrocefin, a β-lactam widely used as a surrogate substrate of Penicillin in β-lactamase activity assay, was used as a substrate. NC degradation was monitored for 2 h. Nitrocefin stock solution was dissolved in acetonitrile (20 mM) and then diluted with Hepes buffer (50 mM, pH 7.4) to nitrocefin concentration of 360 µM (further dilutions to lower concentrations were made with the 360 µM NC stock). All nitrocefin samples were kept on ice in cold conditions and any further dilution or mixing was performed in ice-cold conditions to avoid self-hydrolysis background reaction. […] Immediately after mixing the samples, the plate was transferred to 20̊ °C pre-cooled plate reader (Multiskan GO, Thermo Scientific, Waltham, MA) and shaken slowly for 10 s. Then, the absorbance of degraded nitrocefin was measured for 2 h at interval of 20 s at λ = 480 nm. Initial production rates (V0) were calculated by slope of the initial linear range of degraded-nitrocefin production at the first 15 min. The reported results are and average of at least five separate measurements (the exact number of repeats, N, is reported next to the values). Each experiment also included blank samples of nitrocefin substrate diluted with buffer instead of PSMα. […] The initial rate calculations were performed while also subtracting the self-degradation of the substrate, to ensure that this product absorbance is a result of PSMα presence.
The initial rates of degraded-nitrocefin production were calculated from the slopes of the first 15 min of measurement as reported above. The initial rates (V0) were fitted using non-linear regression applied with the solver function in excel, either to Michalis–Menten equation V=Vmax.[S]/(KM+S) Where Vmax. Stands for maximal reaction rate, KM stands for Michalis–Menten constant, [S] stands for the substrate molar concentration. Each initial rate value was presented as average ± SEM. The kinetic parameters were calculated by fitting the data to MM model using non-linear regression, and the confidence intervals for each parameter were calculated accordingly.

[2] = not given; remark: listed apart in the source
[3] = tested on: O=C(Cc1cccs1)N[C@@H]1C(=O)N2C(C(=O)O)=C(/C=C/c3ccc([N+](=O)[O-])cc3[N+](=O)[O-])CS[C@H]12; assay: Initial rates of nitrocefin hydrolysis by pre-assembled PSMα peptides (170 µM) followed by absorbance at 480 nm in 50 mM Hepes pH 7.4 at 20 °C, non-linear fit to the Michaelis-Menten equation.; type: biochemical
Procedure: Measurements of V0 as function of initial substrate (nitrocefin) concentrations (keeping the PSMα concentration constant at 170 µM, assuring amyloid formation, e.g., above the 30 μM threshold) are depicted in Fig. 2c. […] Table S1 summarizes the pertinent enzymatic parameters extracted from the initial reaction rate data in Fig. 2c using non-linear regression fit to a MM reaction model. Figure 2d presents the catalytic efficiencies, calculated for each peptide by dividing the turnover rate by the MM-constant (Kcat/KM), considered a measure for both substrate binding affinity and conversion kinetics into product.
(§1) Nitrocefin, a β-lactam widely used as a surrogate substrate of Penicillin in β-lactamase activity assay, was used as a substrate. NC degradation was monitored for 2 h. Nitrocefin stock solution was dissolved in acetonitrile (20 mM) and then diluted with Hepes buffer (50 mM, pH 7.4) to nitrocefin concentration of 360 µM (further dilutions to lower concentrations were made with the 360 µM NC stock). All nitrocefin samples were kept on ice in cold conditions and any further dilution or mixing was performed in ice-cold conditions to avoid self-hydrolysis background reaction. 120 µL of the pre-cooled nitrocefin solutions were mixed inside precooled clear 96-well plate (Greiner F-bottom) with 60 µL of pre-incubated PSMα solution (510 µM PSMα, incubated in DIW and later buffered in Hepes 50 mM, pH 7.4). Immediately after mixing the samples, the plate was transferred to 20̊ °C pre-cooled plate reader (Multiskan GO, Thermo Scientific, Waltham, MA) and shaken slowly for 10 s. Then, the absorbance of degraded nitrocefin was measured for 2 h at interval of 20 s at λ = 480 nm. Initial production rates (V0) were calculated by slope of the initial linear range of degraded-nitrocefin production at the first 15 min. The reported results are and average of at least five separate measurements (the exact number of repeats, N, is reported next to the values). Each experiment also included blank samples of nitrocefin substrate diluted with buffer instead of PSMα. All presented results include subtraction of buffer control. The initial rate calculations were performed while also subtracting the self-degradation of the substrate, to ensure that this product absorbance is a result of PSMα presence.
The initial rates of degraded-nitrocefin production were calculated from the slopes of the first 15 min of measurement as reported above. […] The kinetic parameters were calculated by fitting the data to MM model using non-linear regression, and the confidence intervals for each parameter were calculated accordingly. […]
Values derive from the fitting of the initial rates to MM model and are presented as calculated-value ± confidence interval. […]

[4] = tested on: O=C(Cc1cccs1)N[C@@H]1C(=O)N2C(C(=O)O)=C(/C=C/c3ccc([N+](=O)[O-])cc3[N+](=O)[O-])CS[C@H]12; assay: Source-data fits for PSMα variants (170 µM): initial rates of nitrocefin hydrolysis (up to 240 µM) by absorbance at 480 nm in 50 mM Hepes pH 7.4 at 20 °C.; type: biochemical
Procedure: as §1
The initial rates of degraded-nitrocefin production were calculated from the slopes of the first 15 min of measurement as reported above. […] The kinetic parameters were calculated by fitting the data to MM model using non-linear regression, and the confidence intervals for each parameter were calculated accordingly.

[5] = type: biochemical; settings: Fap 20 µM, nitrocefin 100 µM, A480, ten hours (Fig. S3)
Procedure: Figure S3. Cross-β bacterial amyloids of Pseudomonas Aeruginosa. Fap B and Fap C were incubated for seven days at 37 °C for fibrillation. Then, upon appearance of typical turbidity the samples were diluted and nitrocefin was added to the samples, creating solutions of 20 µM Fap and nitrocefin in concentration of 100 µM. The absorbance of the nitrocefin was recorded in microplate reader at 480 nm for ten hours, resulting low absorbance relatively to the PSMα at close mass concentration (w/v, 300 µM). This comparison was necessary due to the major differences in sequence length of the Fap proteins and the short PSMα3 peptide. The results are shown as absorbance rather than product concentration due to the slight turbidity of the Fap samples.
(1 picture or pasted object on this page, not shown here)

[6] = AVG of runs, fit of V0 vs NC concentration
[7] = Michaelis-Menten fit of nitrocefin titration, single run, block r246-r259
[8] = Michaelis-Menten fit of nitrocefin titration, single run, block r262-r275
[9] = Michaelis-Menten fit of nitrocefin titration, single run, block r278-r291
[10] = Michaelis-Menten fit of nitrocefin titration, single run, block starting r293

KNKMFGVALFNFGFKEDLLFLK [α3-scrambled]
Kcat [1, 6]: 3362023 s⁻¹
Vmax [1, 6]: 31897124362167 µM/h
E [1/Ms] (catalytic efficiency) ([1]; AVG of runs, fit of V0 vs nitrocefin (NC) concentration): 0.653 M⁻¹ s⁻¹
Kcat [1, 7]: 406977 s⁻¹
Vmax [1, 7]: 249070136309 µM/h
Kcat [1, 8]: 0.0002595 s⁻¹
Km [1, 8]: 438 µM
Vmax [1, 8]: 158.82 µM/h
Kcat [1, 9]: 0.0002595 s⁻¹
Km [1, 9]: 438 µM
Vmax [1, 9]: 158.82 µM/h
Kcat [1, 10]: 3.556e-05 s⁻¹
Km [1, 10]: 37.6 µM
Vmax [1, 10]: 21.76 µM/h
initial rate of nitrocefin degradation reaction (V0) ([1]; Hepes 50 mM pH 7.4, 20 °C): 21 µM/h
ATR-FTIR amide-I shoulder: 1680 cm⁻¹
ATR-FTIR amide-I peak/maximum [2]: 1630 cm⁻¹

CSCC[C@H](N)C(=O)N[C@@H](CCC(=O)O)C(=O)N[C@@H](Cc1ccccc1)C(=O)N[C@H](C(=O)N[C@@H](C)C(=O)N[C@@H](CCCCN)C(=O)N[C@@H](CC(C)C)C(=O)N[C@@H](Cc1ccccc1)C(=O)N[C@@H](CCCCN)C(=O)N[C@H](Cc1ccccc1)C(=O)N[C@H](Cc1ccccc1)C(=O)N[C@@H](CCCCN)C(=O)N[C@@H](CC(=O)O)C(=O)N[C@@H](CC(C)C)C(=O)N[C@@H](CC(C)C)C(=O)NCC(=O)N[C@@H](CCCCN)C(=O)N[C@@H](Cc1ccccc1)C(=O)N[C@@H](CC(C)C)C(=O)NCC(=O)N[C@@H](CC(N)=O)C(=O)N[C@@H](CC(N)=O)C(=O)O)C(C)C [α3-(d)FF]
initial rate of nitrocefin degradation reaction (V0) ([1]; Hepes 50 mM pH 7.4, 20 °C): 30 µM/h
ATR-FTIR amide-I shoulder: 1630 cm⁻¹
ATR-FTIR amide-I peak/maximum [2]: 1640 cm⁻¹

PSMα1 (Staphylococcus aureus subsp. aureus NCTC 8325)
Km [3]: 0.2 mM

PSMα4 (Staphylococcus aureus subsp. aureus MW2)
Km [3]: 0.2 mM

PSMα2 (Staphylococcus aureus subsp. aureus MW2)
Km [3]: 0.23 mM

PSMα3 (Staphylococcus aureus subsp. aureus NCTC 8325)
Km [3]: 0.08 mM

a3-cationic (Staphylococcus aureus subsp. aureus NCTC 8325; D13N/E2Q)
Km [4]: 772.188 µM
Vmax [4]: 8.13 µM/min
kcat [4]: 0.00116 s⁻¹

MGIIAGIIKVIKSLIEQFTGK [PSMα1]
Initial nitrocefin-degradation reaction rate, V0 ([1]; PSMα 4.01424 uM, nitrocefin 60 µM): 0.191
Initial nitrocefin-degradation reaction rate, V0 ([1]; PSMα 6.02136 uM, nitrocefin 60 µM): -0.01182
Initial nitrocefin-degradation reaction rate, V0 ([1]; PSMα 9.03205 uM, nitrocefin 60 µM): -0.1032
Initial nitrocefin-degradation reaction rate, V0 ([1]; PSMα 13.5481 uM, nitrocefin 60 µM): -0.1644
Initial nitrocefin-degradation reaction rate, V0 ([1]; PSMα 20.3221 uM, nitrocefin 60 µM): -0.2267
Initial nitrocefin-degradation reaction rate, V0 ([1]; PSMα 30.4832 uM, nitrocefin 60 µM): -0.2129
Initial nitrocefin-degradation reaction rate, V0 ([1]; PSMα 45.7247 uM, nitrocefin 60 µM): -0.2655
Initial nitrocefin-degradation reaction rate, V0 ([1]; PSMα 68.5871 uM, nitrocefin 60 µM): -0.7898
Initial nitrocefin-degradation reaction rate, V0 ([1]; PSMα 102.881 uM, nitrocefin 60 µM): 9.2527
Initial nitrocefin-degradation reaction rate, V0 ([1]; PSMα 154.321 uM, nitrocefin 60 µM): 10.6002
Initial nitrocefin-degradation reaction rate, V0 ([1]; PSMα 231.481 uM, nitrocefin 60 µM): 20.6526
Initial nitrocefin-degradation reaction rate, V0 ([1]; PSMα 347.222 uM, nitrocefin 60 µM): 27.2811
nitrocefin degradation yield (turnover) ([1]; nitrocefin 60 µM, PSMα assemblies 350 µM, Hepes 50 mM pH 7.4, 20 °C, A480, monitored 2 h (Fig. 2a)): ~ 50%
ATR-FTIR amide-I peak/maximum [2]: 1650 cm⁻¹

B1: FapB: cross-β Pseudomonas Aeruginosa-originated bacterial amyloid (protein, UniProt Q9I2E9 20-189, looked up)
Functional amyloid subunit …: DPLASRNRASIDDSGTYRGNFALNQAAGDAQQQSNVRVVAVGSAALVGSDQRQHLQLDASQPIAASASISGAALRGSGILGVNQGAGLGNQQINAFRLSLSNGPESLDDSVLAQSVALTKVSGSATPVPGGRSVSTDDRAFAGSSGVVQVNQSAGVGNQSMNTLSVRVME
nitrocefin degradation by cross-β bacterial amyloids [5]: minor nitrocefin degradation

B2: FapC: cross-β Pseudomonas Aeruginosa-originated bacterial amyloid (protein, UniProt Q9I2F0 25-340, looked up)
Functional amyloid subunit …: GNEGGWHPPKPNPQSNNKGGATALVVDTQQNYNNKVSNFGTLNNASVSGSIKDASGNVGVNVAAGDNNQQANAAALASADASFVFGTATASTSVLQSGYGNTLNNYSNPNTASLSNSANNVSGNLGVNVAAGNFNQQKNDLAAAVSNGQYSTAGSAASQTSTGNTTVNSANYAYGGTYVSLKLNADGSYKGTSDQIGDVYLDTWEGQTHPGGSNTGHIDVDSQAQGAKDLNHDGGAFAFKEKGDVDLKGTVSGFIPAIVGFKTPVTNNASLSNSLQNVSGNVGVNIAAGGGNQQSNSLSIAAGCSSCPAGGESLGF
nitrocefin degradation by cross-β bacterial amyloids [5]: minor nitrocefin degradation

— paper PMC10713593, “Staphylococcus aureus functional amyloids catalyze degradation of β-lactam antibiotics” (Nature Communications, 2023)
